We go through 7 compounds from ChEMBL document CHEMBL5120811, “Nocathiacin, Thiazomycin, and Polar Analogs Are Highly Effective Agents against Toxigenic Clostridioides difficile” (J Nat Prod, 2022).

Data set [1] can be described thus: Selectivity ratio of MIC for Bacteroides fragilis ATCC 25285 to MIC for Clostridioides difficile. It counts as functional.
Data set [2] relates to Clostridioides difficile. As to the kind of experiment: Antibacterial activity against Clostridioides difficile assessed as inhibition of bacterial growth by CLSI based agar dilution susceptibility analysis. It counts as functional. On the technique in general: Agar dilution tests growth on a series of plates holding different concentrations.
For data set [3], the system named is Bacteroides fragilis. The data set is described as follows: Antibacterial activity against Bacteroides fragilis ATCC 25285 assessed as inhibition of bacterial growth by CLSI based agar dilution susceptibility analysis. It counts as functional.
For data set [4], the system named is Clostridioides difficile. As to the kind of experiment: Antibacterial activity against Clostridioides difficile SM8-6865 in CDAD golden hamster model assessed as protection from lethal infection at 6.25 mg/kg, po administered twice daily for 4 days. It is filed as functional. The note with it: time 4 day.
Data set [5] has as its system Clostridioides difficile. The data set is described as follows: Antibacterial activity against Clostridioides difficile SM8-6865 in CDAD golden hamster model assessed as log reduction in cecum bacterial content at 6.25 mg/kg, po administered twice daily for 4 days. The note with it: time 4 day. It is filed as functional.
The nature of data set [6]: Drug concentration in golden hamster caecum at 6.25 mg/kg, po measured after 1 hr by LC-MS/MS analysis. It is filed as ADME, organism-based, Mesocricetus auratus. The note with it: read-out: Ct.
Data set [7] is described as follows: Drug concentration in golden hamster caecum at 6.25 mg/kg, po measured after 24 hrs by LC-MS/MS analysis. It is filed as ADME, organism-based, Mesocricetus auratus. The note with it: read-out: Ct.
In data set [8] the test system is Clostridioides difficile. As to the kind of experiment: Antibacterial activity against Clostridioides difficile SM8-6865 in CDAD golden hamster model assessed as protection from lethal infection at 0.39 o 1.56 mg/kg, po administered twice daily for 4 days. It counts as functional. The note with it: time 4 day.
The subject of data set [9] is Clostridioides difficile. As to the kind of experiment: Antibacterial activity against Clostridioides difficile SM8-6865 in CDAD golden hamster model assessed as protection from lethal infection at 1.56 mg/kg, po administered twice daily for 4 days. It counts as functional. The note with it: time 4 day.
The test system of data set [10] is Clostridioides difficile. The data set is described as follows: Antibacterial activity against Clostridioides difficile SM8-6865 in CDAD golden hamster model assessed as log reduction in cecum bacterial content at 1.56 mg/kg, po administered twice daily for 4 days. It counts as functional. The note with it: time 4 day.
Data set [11] relates to Clostridioides difficile. As to the kind of experiment: Antibacterial activity against Clostridioides difficile assessed as inhibition of bacterial growth incubated for 18 to 24 hrs by broth microdilution method. It is filed as functional. The note with it: time 18-24 hrs. (In general: In broth dilution the organism is exposed to a series of concentrations in liquid medium.)

Data set [12] deals with Clostridioides difficile. As to the kind of experiment: Antibacterial activity against Clostridioides difficile SM8-6865 in CDAD golden hamster model assessed as protection from lethal infection at 1.56 mg/kg, po administered once daily for 4 days. It is filed as functional. The note with it: time 4 day.
Data set [13] relates to Clostridioides difficile. The data set is described as follows: Antibacterial activity against Clostridioides difficile SM8-6865 in CDAD golden hamster model assessed as log reduction in cecum bacterial content at 1.56 mg/kg, po administered once daily for 4 days. It counts as functional. The note with it: time 4 day.
Data set [14] can be described thus: Toxicity in Clostridioides difficile SM8-6865 infected golden hamster model assessed as survival at 1.56 mg/kg, po administered once daily for 4 days. It is filed as organism-based, Mesocricetus auratus. The note with it: in vivo, 96 h, time 4 day.

Converted amounts (≈) assume the structure as drawn.

As to `CO/C(C)=C1/NC(=O)[C@H]([C@@H](C)O)NC(=O)c2csc(n2)-c2cc(OC)c(-c3nc(C(=O)NCCCN4CCOCC4)cs3)nc2-c2csc(n2)[C@@H]2COC(=O)c3c4c5c(cccc5n3O)COC(=O)[C@@H](O[C@H]3C[C@](C)(O)[C@H](N(C)C)[C@H](C)O3)[C@@H](OC4)[C@H](NC(=O)c3csc1n3)c1nc(cs1)C(=O)N2`, the Selectivity ratio in data set [1] came out at 100. The MIC50 (in general, the lowest concentration that inhibits either 50% of growth or 50% of the strains tested, depending on the study) in data set [2] was at most 0.015 µg/mL. The MIC – broadly, the lowest concentration that inhibits growth of the organism – in data set [3] stood at 4 µg/mL (≈ 2.65 µM).

For the compound `CO/C(C)=C1/NC(=O)[C@H]([C@@H](C)O)NC(=O)c2csc(n2)-c2cc(O)c(-c3nc(C(=O)NCCCN4CCOCC4)cs3)nc2-c2csc(n2)[C@@H]2COC(=O)c3c4c5c(cccc5n3O)COC(=O)[C@@H](O[C@H]3C[C@](C)(O)[C@H](N(C)C)[C@H](C)O3)[C@@H](OC4)[C@H](NC(=O)c3csc1n3)c1nc(cs1)C(=O)N2`, the Selectivity ratio in data set [1] is 100. In data set [2], the MIC50 was 0.03 µg/mL (≈ 0.0201 µM). In data set [3], the MIC was 4 µg/mL (≈ 2.67 µM). Further, the Activity in [4] is 100%; in data set [5], above 5 log10CFU/g; in data set [8], 16%. Further, the concentration at 1 h in data set [6] was found to be 6560 nM. Further, the concentration at 24 h in [7] turned out to be 80 nM.

Consider `CCc1c(Cl)c(O)c(Cl)c(O)c1C(=O)O[C@H]1[C@H](O)[C@H](OC)[C@H](OC/C2=C\C=C\C[C@H](O)/C(C)=C/[C@H](CC)[C@@H](O[C@@H]3OC(C)(C)[C@@H](OC(=O)C(C)C)[C@H](O)[C@@H]3O)/C(C)=C/C(C)=C/C[C@@H]([C@@H](C)O)OC2=O)O[C@@H]1C` [FIDAXOMICIN], for which the MIC50 in [2] turned out to be 0.5 µg/mL (≈ 0.473 µM). For the same compound, the MIC in data set [3] was above 16 µg/mL.

Consider `Cc1ncc([N+](=O)[O-])n1CCO` [METRONIDAZOLE], for which the MIC50 in data set [2] is at most 0.015 µg/mL. For the same compound, in data set [3], the MIC was above 16 µg/mL.

Turning to `C=C(NC(=O)c1csc(-c2nc3c(cc2O)-c2nc(cs2)C(=O)N[C@@H]([C@@H](C)O)C(=O)N/C(=C(\C)OC)c2nc(cs2)C(=O)N[C@@H]2c4nc(cs4)C(=O)N[C@@H](COC(=O)c4c5c6c(cccc6n4O)COC(=O)[C@@H](O[C@H]4C[C@](C)(O)[C@H](N(C)C)[C@H](C)O4)[C@H]2OC5)c2nc-3cs2)n1)C(N)=O` [MJ347-81F4 A], the Selectivity ratio in data set [1] worked out at 100. The MIC50 in [2] is 0.03 µg/mL (≈ 0.0209 µM). Besides, the MIC was determined as 4 µg/mL (≈ 2.78 µM) in data set [3] and 0.06 µg/mL (≈ 0.0417 µM) in [11]. In addition, the Activity in data set [4] is 100%; in data set [5], above 5 log10CFU/g; in data set [9], 66%; in [10], 4 log10CFU/g. In data set [6], the concentration at 1 h came to 5400 nM. The concentration at 24 h in data set [7] turned out to be 190 nM.

Turning to `C=C(NC(=O)c1csc(-c2nc3c(cc2O)-c2nc(cs2)C(=O)N[C@@H]([C@@H](C)O)C(=O)N/C(=C(\C)OC)c2nc(cs2)C(=O)N[C@@H]2c4nc(cs4)C(=O)N[C@@H](COC(=O)c4c5c6c(cccc6n4O)COC(=O)[C@@H](O[C@H]4C[C@]6(C)OCN(C)[C@@H]6[C@H](C)O4)[C@H]2OC5)c2nc-3cs2)n1)C(N)=O` [THIAZOMYCIN], in [1], the Selectivity ratio amounted to 100. For the same compound, the MIC50 in data set [2] stood at 0.06 µg/mL (≈ 0.0418 µM). The MIC in data set [3] came to 8 µg/mL (≈ 5.57 µM).

Regarding `CN[C@H](CC(C)C)C(=O)N[C@H]1C(=O)N[C@@H](CC(N)=O)C(=O)N[C@H]2C(=O)N[C@H]3C(=O)N[C@H](C(=O)N[C@H](C(=O)O)c4cc(O)cc(O)c4-c4cc3ccc4O)[C@H](O)c3ccc(c(Cl)c3)Oc3cc2cc(c3O[C@@H]2O[C@H](CO)[C@@H](O)[C@H](O)[C@H]2O[C@H]2C[C@](C)(N)[C@H](O)[C@H](C)O2)Oc2ccc(cc2Cl)[C@H]1O` [VANCOMYCIN], the MIC50 in data set [2] came to 0.25 µg/mL (≈ 0.173 µM). For the same compound, the MIC in data set [3] turned out to be 0.5 µg/mL (≈ 0.345 µM). Besides, the Activity is 100% in [12], above 5 log10CFU/g in data set [13] and “Non-Toxic” in data set [14].
